Source: the NIST ThermoML archive (doi:10.1021/je030147g)
“And” between values parts separate entries of the source, which are not always exact repeats. Identical values can stand only once.

Tests used:
[1] = 101.33 kPa, Liquid
[2] = refractive index (Na D-line) (dimensionless); settings: 101.33 kPa, Liquid
[3] = xn = mol fraction of the nth substance listed; settings: 101.33 kPa, Liquid
[4] = refractive index (Na D-line) (dimensionless); xn = mol fraction of the nth substance listed; settings: 101.33 kPa, Liquid

c1ccncc1 [pyridine]
Settings	mass density, 298.15 K [kg/m3]	mass density, 303.15 K [kg/m3]	mass density, 308.15 K [kg/m3]	refractive index, 298.15 K	refractive index, 303.15 K	refractive index, 308.15 K	speed of sound, 298.15 K [m/s]	viscosity, 298.15 K [mPa·s]	viscosity, 303.15 K [mPa·s]	viscosity, 308.15 K [mPa·s]
[1]	979	973.7	968.6	–	–	–	1412	0.885	0.82	0.766
[2]	–	–	–	1.5062	1.5025	1.5016	–	–	–	–

ClC(Cl)=C(Cl)Cl [tetrachloroethene]
Settings	mass density, 298.15 K [kg/m3]	mass density, 303.15 K [kg/m3]	mass density, 308.15 K [kg/m3]	refractive index, 298.15 K	refractive index, 303.15 K	refractive index, 308.15 K	speed of sound, 298.15 K [m/s]	viscosity, 298.15 K [mPa·s]	viscosity, 303.15 K [mPa·s]	viscosity, 308.15 K [mPa·s]
[1]	1616	1607.5	1597.5	–	–	–	1033	0.875	0.831	0.791
[2]	–	–	–	1.5036	1.5005	1.4978	–	–	–	–

CCCCCCCCCCCCCC [tetradecane]
Settings	mass density, 298.15 K [kg/m3]	mass density, 303.15 K [kg/m3]	mass density, 308.15 K [kg/m3]	refractive index, 298.15 K	refractive index, 303.15 K	refractive index, 308.15 K	speed of sound, 298.15 K [m/s]	viscosity, 298.15 K [mPa·s]	viscosity, 303.15 K [mPa·s]	viscosity, 308.15 K [mPa·s]
[1]	760.7	757	753.3	–	–	–	1315	2.032	1.827	1.653
[2]	–	–	–	1.4282	1.426	1.4236	–	–	–	–

C1CCOC1 [tetrahydrofuran]
Settings	mass density, 298.15 K [kg/m3]	mass density, 303.15 K [kg/m3]	mass density, 308.15 K [kg/m3]	refractive index, 298.15 K	refractive index, 303.15 K	refractive index, 308.15 K	speed of sound, 298.15 K [m/s]	viscosity, 298.15 K [mPa·s]	viscosity, 303.15 K [mPa·s]	viscosity, 308.15 K [mPa·s]
[1]	882.9	877.5	871.2	–	–	–	1288	0.485	0.46	0.439
[2]	–	–	–	1.4049	1.4026	1.3998	–	–	–	–

CCCCN(CCCC)CCCC [tributylamine]
Settings	mass density, 298.15 K	mass density, 303.15 K [kg/m3]	mass density, 308.15 K [kg/m3]	refractive index, 298.15 K	refractive index, 303.15 K	refractive index, 308.15 K	speed of sound, 298.15 K [m/s]	viscosity, 298.15 K [mPa·s]	viscosity, 303.15 K	viscosity, 308.15 K
[1]	773.9 kg/m3 and 773.3 kg/m3	769.2	765.7	–	–	–	1262	1.239	1.123 mPa·s and 1.124 mPa·s	1.028 mPa·s and 1.02 mPa·s and 1.103 mPa·s
[2]	–	–	–	1.4276	1.4255 and 1.4254	1.4228	–	–	–	–

CCCCN(CCCC)CCCC [tributylamine] + c1ccncc1
Settings	mass density, 298.15 K [kg/m3]	mass density, 303.15 K [kg/m3]	mass density, 308.15 K [kg/m3]	refractive index, 298.15 K	refractive index, 303.15 K	refractive index, 308.15 K	speed of sound, 298.15 K [m/s]	viscosity, 298.15 K [mPa·s]	viscosity, 303.15 K [mPa·s]	viscosity, 308.15 K [mPa·s]
[3], x1 = 0.0977	927.2	922.3	917.4	–	–	–	1363	0.895	0.833	0.771
[3], x1 = 0.1951	890.5	885.6	880.7	–	–	–	1333	0.914	0.849	0.783
[3], x1 = 0.2949	862.6	858	853.3	–	–	–	1308	0.941	0.872	0.804
[3], x1 = 0.3938	841.3	836.8	832.2	–	–	–	1290	0.971	0.898	0.825
[3], x1 = 0.4898	824.7	820.3	815.9	–	–	–	1282	1.002	0.925	0.848
[3], x1 = 0.5884	810.8	806.5	802.1	–	–	–	1278	1.038	0.957	0.876
[3], x1 = 0.6899	799	794.7	790.5	–	–	–	1275	1.077	0.993	0.909
[3], x1 = 0.7846	789.9	785.7	781.6	–	–	–	1271	1.122	1.031	0.94
[3], x1 = 0.8869	781.6	777.5	773.3	–	–	–	1266	1.175	1.077	0.979
[3], x1 = 1	773.9	769.2	765.7	–	–	–	1262	1.239	1.124	1.028
[4], x1 = 0.0977	–	–	–	1.4866	1.483	1.4795	–	–	–	–
[4], x1 = 0.1951	–	–	–	1.4708	1.4685	1.4662	–	–	–	–
[4], x1 = 0.2949	–	–	–	1.4606	1.4574	1.4542	–	–	–	–
[4], x1 = 0.3938	–	–	–	1.4513	1.4491	1.447	–	–	–	–
[4], x1 = 0.4898	–	–	–	1.4464	1.4428	1.4392	–	–	–	–
[4], x1 = 0.5884	–	–	–	1.4403	1.4376	1.4348	–	–	–	–
[4], x1 = 0.6899	–	–	–	1.4359	1.4335	1.4311	–	–	–	–
[4], x1 = 0.7846	–	–	–	1.4333	1.43	1.4268	–	–	–	–
[4], x1 = 0.8869	–	–	–	1.4303	1.4277	1.4252	–	–	–	–
[4], x1 = 1	–	–	–	1.4276	1.4255	1.4228	–	–	–	–

ClC=C(Cl)Cl [trichloroethene]
Settings	mass density, 298.15 K [kg/m3]	mass density, 303.15 K [kg/m3]	mass density, 308.15 K [kg/m3]	refractive index, 298.15 K	refractive index, 303.15 K	refractive index, 308.15 K	speed of sound, 298.15 K [m/s]	viscosity, 298.15 K [mPa·s]	viscosity, 303.15 K [mPa·s]	viscosity, 308.15 K [mPa·s]
[1]	1456.7	1447.1	1439.5	–	–	–	1028	0.595	0.571	0.549
[2]	–	–	–	1.4752	1.4722	1.469	–	–	–	–

ClC=C(Cl)Cl [trichloroethene] + CCCCN(CCCC)CCCC
Settings	mass density, 298.15 K [kg/m3]	mass density, 303.15 K [kg/m3]	mass density, 308.15 K [kg/m3]	refractive index, 298.15 K	refractive index, 303.15 K	refractive index, 308.15 K	speed of sound, 298.15 K [m/s]	viscosity, 298.15 K [mPa·s]	viscosity, 303.15 K [mPa·s]	viscosity, 308.15 K [mPa·s]
[3], x2 = 0	1456.7	1447.1	1439.5	–	–	–	1028	0.595	0.571	0.549
[3], x2 = 0.0996	1299.3	1291.8	1284.4	–	–	–	1054	0.652	0.622	0.592
[3], x2 = 0.1953	1186.7	1180.1	1173.3	–	–	–	1084	0.713	0.675	0.637
[3], x2 = 0.2913	1098.3	1092.1	1086	–	–	–	1108	0.776	0.73	0.684
[3], x2 = 0.3902	1025.1	1019.6	1013.9	–	–	–	1129	0.842	0.788	0.734
[3], x2 = 0.4875	966.3	961	955.8	–	–	–	1151	0.909	0.846	0.783
[3], x2 = 0.5906	914.7	909.8	904.9	–	–	–	1170	0.978	0.907	0.835
[3], x2 = 0.6843	875	870.3	865.7	–	–	–	1187	1.041	0.962	0.882
[3], x2 = 0.7846	838.1	833.7	829.1	–	–	–	1205	1.105	1.018	0.93
[3], x2 = 0.8835	806.5	802.2	797.8	–	–	–	1227	1.167	1.071	0.976
[4], x2 = 0	–	–	–	1.4752	1.4722	1.469	–	–	–	–
[4], x2 = 0.0996	–	–	–	1.4632	1.4604	1.4576	–	–	–	–
[4], x2 = 0.1953	–	–	–	1.4563	1.453	1.4495	–	–	–	–
[4], x2 = 0.2913	–	–	–	1.4502	1.4469	1.4436	–	–	–	–
[4], x2 = 0.3902	–	–	–	1.4448	1.4417	1.4386	–	–	–	–
[4], x2 = 0.4875	–	–	–	1.4402	1.4377	1.4352	–	–	–	–
[4], x2 = 0.5906	–	–	–	1.437	1.4343	1.4317	–	–	–	–
[4], x2 = 0.6843	–	–	–	1.4346	1.4315	1.4284	–	–	–	–
[4], x2 = 0.7846	–	–	–	1.4318	1.4295	1.427	–	–	–	–
[4], x2 = 0.8835	–	–	–	1.4298	1.4272	1.4246	–	–	–	–

CCN(CC)CC [triethylamine]
Settings	mass density, 298.15 K [kg/m3]	mass density, 303.15 K [kg/m3]	mass density, 308.15 K [kg/m3]	refractive index, 298.15 K	refractive index, 303.15 K	refractive index, 308.15 K	speed of sound, 298.15 K [m/s]	viscosity, 298.15 K [mPa·s]	viscosity, 303.15 K [mPa·s]	viscosity, 308.15 K [mPa·s]
[1]	723.3	718.6	713.7	–	–	–	1123	0.367	0.349	0.332
[2]	–	–	–	1.3992	1.3958	1.3929	–	–	–	–

CCN(CC)CC [triethylamine] + CCCCN(CCCC)CCCC
x2 = 0
Settings	mass density, 298.15 K [kg/m3]	mass density, 303.15 K [kg/m3]	mass density, 308.15 K [kg/m3]	refractive index, 298.15 K	refractive index, 303.15 K	refractive index, 308.15 K	speed of sound, 298.15 K [m/s]	viscosity, 298.15 K [mPa·s]	viscosity, 303.15 K [mPa·s]	viscosity, 308.15 K [mPa·s]
[3]	723.3	718.6	713.7	–	–	–	1123	0.367	0.349	0.332
[4]	–	–	–	1.3992	1.3958	1.3929	–	–	–	–
